From PMC5108032, “Discovery of a Quinoline-4-carboxamide Derivative with a Novel Mechanism of Action, Multistage Antimalarial Activity, and Potent in Vivo Efficacy” (Journal of Medicinal Chemistry, 2016)
Values joined by “and” are separate entries in the source; they are usually repeats but may differ in a detail not shown here. Equal entries are not always repeated. Where two headings read alike, the source gives them in different places. Marks after values point to notes of the source that are not given here.

How the values were obtained:
[1] = set-up: method as in PMID 26085270; settings: potentiometric titration, value in parentheses; cited from earlier work
P. berghei ANKA strain = experiment: In vivo antimalarial efficacy in the P. berghei mouse model (Peter's test); set-up: species or system Plasmodium berghei in female NMRI mice; settings: for cure / inhibition in vivo at 1 mg/kg: once daily; for cure: mice cured / mice in group; for inhibition in vivo at 1 mg/kg: Plasmodium berghei, po, 96 h, 4 × 1 mg/kg oral, read-out: activity (reduction of parasitemia)
Experimental: Compound 41 was dosed as a bolus solution intravenously at 1 mg free base/kg (dose volume: 5 mL/kg; dose vehicle: 5% DMSO;saline) or by gavage orally as solution at 3 mg free base/kg (dose volume: 10 mL/kg; Dose vehicle: 0.5% w/v hydroxypropylmethylcellulose with 0.4% v/v Tween 80 and 0.5% v/v benzyl alcohol) to male Sprague Dawley rats (n=3/dose route). Blood samples were taken from each rat at 5, 15, 30 min, 1, 2, 4, 6, 8, 24 and 30 h post-dose, mixed with two volumes of distilled water and stored frozen until UPLC/MS/MS analysis.
Pharmacokinetic parameters were derived from the blood concentration time curve for each compound using PKsolutions software v 2.0 (Summit Research Services, USA).
In vivo antimalarial efficacy studies in P. berghei. (Swiss TPH)
In vivo efficacy was conducted as previously described10 with the modification that female NMRI mice (n = 3) were infected with a GFP-transfected P. berghei ANKA strain (donated by A. P. Waters and C. J. Janse, Leiden University, The Netherlands), and parasitaemia determined (96 h after infection) using standard flow cytometry techniques. Compounds 1, 25, 27, 30 and 49 were prepared in 10% DM SO, 40% PEG 400 and 50% water prior to administration orally, once daily for 4 days.
Compounds 40, 41, 43 and 44 were prepared in a non-solubilizing, standard suspension vehicle called HPMC (0.5% [wt/vol] hydroxypropylmethylcellulose, 0.5% [vol/vol] benzyl alcohol, 0.4% [vol/vol] Tween 80, and 0.9% [wt/vol] sodium chloride in water) prior to administration orally, once daily for 4 days. Blood samples were collected on day 4 (96 h after infection) in two volumes water. Animals […]
and then hourly up to 4 h after dosing each day. The animals were selected randomly for each group

[2] = set-up: method as in PMID 26085270; settings: male Sprague Dawley rat, intravenous at 1 mg/kg; cited from earlier work
[3] = set-up: method as in PMID 26085270; settings: human liver microsome; cited from earlier work
[4] = set-up: method as in PMID 26085270; settings: mouse plasma protein binding; cited from earlier work
Pf (3D7) = experiment: Ligand efficiency metrics (LE, LLE, LELP), selectivity and fold changes; set-up: species or system Plasmodium falciparum
[5] = set-up: method as in PMID 26085270; settings: pH 7.4; cited from earlier work
[6] = set-up: method as in PMID 26085270; settings: mouse, iv dose 1 mg/kg; cited from earlier work
[7] = set-up: method as in PMID 26085270; settings: rat liver microsome; cited from earlier work
[8] = set-up: method as in PMID 26085270; settings: mouse liver microsome; cited from earlier work
[9] = Parallel artificial membrane permeability assay (PAMPA); type: in vitro ADME
[10] = Mammalian cell growth inhibition counter-screen (resazurin); type: cell-based, human; settings: human, MRC-5 cells (normal diploid human fibroblasts)
Experimental: (§1) Plasmodium falciparum screening
(§2) Assays against P. falciparum were conducted as previously described.1 Cultures of the widely-used malaria reference strain of chloroquine-sensitive Plasmodium falciparum strain 3D7 were maintained in a 5% suspension of human red blood cells (obtained from East of Scotland Blood Transfusion Service, Ninewells Hospital, Dundee) cultured in RPMI 1640 medium (pH 7.3) supplemented with 0.5% Albumax II (Gibco Life Technologies, San Diego, CA), 12 mM sodium bicarbonate, 0.2 mM hypoxanthine and 20 mg/L gentamicin at 37°C, in a humidified atmosphere of 1% O 2, 3% CO2 with a balance of nitrogen. Growth inhibition was quantified using a fluorescence assay utilising the binding of SYBR green to double stranded DNA, which emits a fluorescent signal at 528 nm after excitation at 485nm.2 Mefloquine (potency range 30-60 nM) was used as a drug control to monitor the quality of the assay (Z’ = 0.6 to 0.8, Signal to background >3, where Z’ is a measure of the discrimination between the positive and negative controls on a screen plate). A 96-well [3H]-Hypoxanthine incorporation assay was also developed as a secondary assay in order to validate compounds from the initial screen in an orthogonal platform.3 Compound bioactivity from both assays was expressed as […]
(§3) P. falciparum (panel of resistant strains) in vitro assay. (Swiss TPH)
(§4) All Plasmodium strains were cultured according to Trager and Jensen and are described at www.beiresources.org (resistant strains: K1, W2, 7G8, TM90C2A, D6 and V1/S, sensitive strain:
(§5) NF54). EC50 values were determined in vitro by measuring incorporation of the nucleic acid precursor […]
(§6) Mammalian Cell Growth Inhibition assay
(§7) A counter-screen against normal diploid human fibroblasts (MRC-5 cell line) was carried out to exclude non-selective, and toxic compounds. The assay was essentially carried out as described previously.4 Cells were plated and incubated overnight to allow them to adhere as monolayers. A working stock of each test compound was transferred to an intermediate 384-well plate and pre-diluted with minimum essential media (MEM). The pre-diluted stocks were then transferred onto the cell monolayers, and the plates were incubated for 68 h. Resazurin, to a final concentration of 50 μM, was added to each well, after which plates were incubated for a further 3 h and measured for fluorescence (λex=528 nm, λem=590 nm)
(§8) In vitro Cell Assay Data Analysis.
(§9) All data was processed using IDBS ActivityBase® raw data was converted into per cent inhibition through linear regression by setting the high inhibition control as 100% and the no inhibition control as 0%. Quality control criteria for passing plates were as follows: Z’> 0.5, S:B> 3, %CV(no inhibition < 15 . The formula used to calculate Z’ is 1 3× (St D e v _ hi gh + St D e v _ low) . […]
(§10) All EC50 Curve fitting was undertaken using XLFit version 4.2 using Model 205 with the following 4 parametric equation: y = A + B A A + ($-&) ,where A=% inhibition at bottom, B=% […]
(§11) inhibition at top, C= EC50, D= slope, x= inhibitor concentration and y= % inhibition. […]
(§12) reach 100% of inhibition, B was fixed to 100 only when at least 50% of inhibition was reached.
(§13) Plasmodium falciparum late stage (IV-V) gametocyte high content imaging assay Plasmodium falciparum NF54-pfs16-LUC-GFP stage IV-V Gametocytes were produced as described previously.5 Compounds were solubilized in DMSO and serially diluted in three concentrations per log standard curves in DM SO. One µl of compound was subsequently diluted in 25µl of water (4% DMSO) and 5µl transferred into the base of 384 well PerkinElmer CellCarrier plates. Forty-five µl of stage IV-V gametocytes (10%P in 0.1%H) were added to the imaging plates which were in turn sealed with a gas permeable membrane and incubated at 37°C, 5% CO 2, 5% O2, 90% N2 and 60% humidity […]
(§14) Post incubation, 5µl of MitoTracker® Red CM -H2Xros (MTR) solution (0.66ug/ml) was added to all wells and the plates incubated for a further 16hours. […]

[11] = test system: Plasmodium falciparum strain 3D7; experiment: Plasmodium falciparum screening, SYBR green growth inhibition; type: cell-based; settings: 3D7, supplementary csv, read-out: Pf (3D7) EC50
Experimental: as §1, §2, §3, §4, §5, §6, §7, §8, §9, §10, §11, §12, §13, §14

[12] = Intrinsic clearance (Cli) in mouse liver microsomes; type: in vitro ADME; settings: mouse liver microsome
Excerpt: as §11, §12, §13
(§15) Post incubation, 5µl of MitoTracker® Red CM -H2Xros (MTR) solution (0.66ug/ml) was added to all wells and the plates incubated for a further 16hours. The assay plates were then imaged and the number of viable gametocytes determined for test compounds plus 0.4%DMSO and 5µM Puromycin.
(§16) (0.4%DMSO) control values. Percent inhibition was plotted against log compound concentration using a 4 parameter log dose, non-linear regression analysis, with sigmoidal dose response (variable slope) curve fit using Prizm 4.0. IC50 values were obtained from this curve fit. The compound testing was performed in duplicate point within two separate experiments.
(§17) Plasmodium berghei ookinete development assay
(§18) Assay was performed as previously reported.6 Briefly blood containing P. berghei CTRPp-GFP gametocytes was rapidly harvested from infected mice and introduced to test compounds pre-diluted in ookinete medium (to induce gamete formation and support ookinete development) in 96-well plates. Plates were incubated in the dark at 21°C for 22 hr before GFP fluorescence intensity measured in a plate reader. % inhibition of ookinete formation was calculated with reference to the fluorescence intensity values of a positive control (20 µM cycloheximide) and a solvent-only negative control (DMSO). All assays were performed in triplicate independent experiments and EC50 values calculated in Graphpad Prism.
(§19) The aqueous solubility of the test compounds was measured using laser nephelometry, as described previously.7 Compounds were subject to serial dilution from 10 mg/mL to 0.5 mg/mL in DMSO. An aliquot was then mixed with MilliQ water to obtain an aqueous dilution plate with a final concentration range of 100 – 5 μg/mL, with a final DMSO concentration of 1.0%. Triplicate aliquots were transferred to a flat bottomed polystyrene plate which was immediately read on the NEPHELOstar (BMG Lab Technologies). The amount of laser scatter caused by insoluble particulates (relative nephelometry units, RNU) was plotted against compound concentration using a segmental regression fit, with the point of inflection being quoted as the compounds aqueous solubility (μg/mL; […]
(§20) Intrinsic Clearance (Cli) experiments
(§21) The procedure was carried out as reported previously.7 Test compound (0.5 µM) was incubated with female CD1 mouse, male sprague-dawley rat or pooled human mixed gender liver microsomes (Xenotech LLC TM; 0.5 mg/mL 50 mM potassium phosphate buffer, pH 7.4) and the reaction initiated […]
by the addition of excess NADPH (8 mg/mL 50 mM potassium phosphate buffer, pH 7.4).
Immediately, at time zero, then at 3, 6, 9, 15 and 30 min an aliquot (50 μL) of the incubation mixture was removed and mixed with acetonitrile (100 μL) to stop the reaction. Internal standard was added to all samples, the samples centrifuged to sediment precipitated protein and the plates then sealed prior to UPLC-MS/MS analysis using a Quattro Premier XE (Waters Corporation, USA).
XLfit (IDBS, UK) was used to calculate the exponential decay and consequently the rate constant (k) from the ratio of peak area of test compound to internal standard at each timepoint. The rate of […]

[13] = Experimental pKa by potentiometric titration; type: physicochemical; settings: value in parentheses, read-out: R^3 group pKa, experimental
Excerpt: Table 4 SAR Study of the R^3 Substituent: Aromatic Groups | column: R^3 group pKa^a

[14] = Intrinsic clearance (Cli) in rat liver microsomes; type: in vitro ADME; settings: rat liver microsome
Excerpt: as §11, §12, §13, §15, §16, §17, §18, §19, §20, §21
(§22) by the addition of excess NADPH (8 mg/mL 50 mM potassium phosphate buffer, pH 7.4). […]

[15] = Intrinsic clearance (Cli) in human liver microsomes; type: in vitro ADME; settings: human liver microsome
Excerpt: as §11, §12, §13, §15, §16, §17, §18, §19, §20, §21, §22

[16] = Pf (3D7), relative to the comparator compound of the sentence

O=C(NCCN1CCCC1)c1cc(-c2ccc(CN3CCOCC3)cc2)nc2ccc(F)cc12 [Compound 2]
R^3 group pKa, experimental [1]: 6.8
cure (P. berghei ANKA strain; 4 × 3 mg/kg oral): 2/3
cure (P. berghei ANKA strain; 4 × 10 mg/kg oral): 3/3
cure (P. berghei ANKA strain; 4 × 30 mg/kg oral, 30 mg/kg): complete cure and 3/3
ED90 (P. berghei ANKA strain; dosed orally for 4 days): 0.1 to 0.3 mg/kg
Clb [2]: 18 mL min^–1 kg^–1
HLM Cli [3]: ≤1.1 mL min^–1 g^–1
PPB [4]: 63%
LLE (ligand-lipophilicity efficiency) (Pf (3D7)): 5.9
improvement / increase in potency (Pf (3D7); [16]): 70 fold
PAMPA Pe [5]: 7.3 ×10⁻⁶ cm/s
Clb [6]: 12 ^b mL min^–1 kg^–1
RLM Cli [7]: ≤0.8 mL min^–1 g^–1
MLM Cli [8]: <0.5 mL min^–1 g^–1
increase in permeability ([9]; relative to the earlier lead): more than 30 fold

Cc1ccc(-c2cc(C(=O)Nc3cccnc3)c3ccccc3n2)cc1 [Compound 12, N-(Pyridine-3-yl)-2-(p-tolyl)quinoline-4-carboxamide]
drop in potency (Pf (3D7); [16]): 8 fold
EC50 at 68 h [10]: > 50 µM

O=C(NCCN1CCCC1)c1cc(NCCC2CCOCC2)nc2ccc(F)cc12 [Compound 29, 6-Fluoro-N-(2-(pyrrolidin-1-yl)ethyl)-2-((2-(tetrahydro-2H-pyran-4-yl)ethyl)amino)quinoline-4-carboxamide]
EC50 at 68 h [10]: > 50 µM
EC50 [11]: 0.0017 µM

O=C(NCCN1CCCC1)c1cc(-c2ccc(CN3CCOCC3)c(F)c2)nc2ccc(F)cc12 [Compound 40]
MLM Cli [12]: 1.0 mL min^–1 g^–1
inhibition in vivo at 1 mg/kg (P. berghei ANKA strain): > 99%
pKa [13]: 6.1

O=C(NCCN1CCCC1)c1cc(-c2ccc(CN3CCS(=O)(=O)CC3)cc2)nc2ccc(F)cc12 [Compound 43]
RLM Cli [14]: 0.8 mL min^–1 g^–1
MLM Cli [12]: <0.5 mL min^–1 g^–1
inhibition in vivo at 1 mg/kg (P. berghei ANKA strain): > 99%

O=C(NCCN1CCCC1)c1cc(-c2ccc(CN3CCCC3=O)cc2)nc2ccc(F)cc12 [Compound 44]
RLM Cli [14]: 0.6 mL min^–1 g^–1
MLM Cli [12]: 2.0 mL min^–1 g^–1
HLM Cli [15]: 2 mL min^–1 g^–1

CC(C)NCC(O)COc1cccc2ccccc12 (centres unmarked) [propanolol, reference compound]
Papp at 5 h, 10 µM ([9]; pH 7.4, read-out: PAMPA Pe): 15.9 ×10⁻⁶ cm/s
